Patent publication US20040167181A1, “Methods of treating conditions associated with an Edg-3 receptor” (priority 2003, published 2004)
“Also recorded” adds a separate entry of the source.

Assays:
[1] = molecular target: T1, human Edg-3 receptors (Homo sapiens, UniProt Q99500); experiment: Calcium response in HTC cells expressing human Edg-3 receptors; assay type: cell-based; conditions: HTC cells expressing human Edg-3 receptors (also tested in NIH 3T3 cell lines that naturally express Edg-3); FIG. 1
T1 construct: expressed in transfected cells; host or cells: HTC (rat hepatoma) cells
T1 sequence (Q99500 whole entry): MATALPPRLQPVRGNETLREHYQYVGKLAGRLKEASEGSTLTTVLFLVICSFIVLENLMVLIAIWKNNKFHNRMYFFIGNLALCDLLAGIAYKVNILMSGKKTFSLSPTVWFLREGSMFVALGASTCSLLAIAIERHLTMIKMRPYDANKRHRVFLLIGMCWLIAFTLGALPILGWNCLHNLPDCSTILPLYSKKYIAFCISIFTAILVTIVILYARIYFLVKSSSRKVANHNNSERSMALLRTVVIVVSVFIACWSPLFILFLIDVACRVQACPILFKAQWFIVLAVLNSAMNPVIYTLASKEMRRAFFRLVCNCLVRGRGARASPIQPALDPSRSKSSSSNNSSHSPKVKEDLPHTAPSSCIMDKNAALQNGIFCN
Source text: Specific assays for Edg-3 receptor activity are known to those of skill in the art. For example, cells expressing Edg-3 receptors can be contacted with a membrane-permeant calcium sensitive dye such as Fluo-4 AM or a proprietary calcium dye loading kit (e.g., FLIPR Calcium Assay kit, Molecular Devices, Sunnyvale, Calif.). Intracellular calcium is capable of binding to the dye and emitting fluorescent radiation when illuminated at the appropriate wavelength. The cells can thus be illuminated an appropriate wavelength for the dye and any emitting light can be captured by a cooled CCD camera. Changes in fluorescence indicate changes in intracellular calcium resulting from the activation of an Edg-3 receptor. Such changes can be measured advantageously in whole cells in “real-time” (Berridge et al., Nature Reviews 2000, 1:11-21).
The compounds were tested in HTC cells expressing human Edg-3 receptors, as well as in NIH 3T3 cell lines that naturally express Edg-3 receptors. […] The compounds are tested in this recombinant system first, and subsequently tested in cell lines expressing Edg-3 (in addition to other Edg receptors).

[2] = molecular target: T2, Edg-2 (Homo sapiens, UniProt Q92633); experiment: LPA-stimulated calcium increases in HTC cells expressing Edg-2; assay type: cell-based; conditions: concentrations as high as 10 μM
T2 construct: expressed in transfected cells; host or cells: HTC (rat hepatoma) cells
T2 sequence (Q92633 whole entry): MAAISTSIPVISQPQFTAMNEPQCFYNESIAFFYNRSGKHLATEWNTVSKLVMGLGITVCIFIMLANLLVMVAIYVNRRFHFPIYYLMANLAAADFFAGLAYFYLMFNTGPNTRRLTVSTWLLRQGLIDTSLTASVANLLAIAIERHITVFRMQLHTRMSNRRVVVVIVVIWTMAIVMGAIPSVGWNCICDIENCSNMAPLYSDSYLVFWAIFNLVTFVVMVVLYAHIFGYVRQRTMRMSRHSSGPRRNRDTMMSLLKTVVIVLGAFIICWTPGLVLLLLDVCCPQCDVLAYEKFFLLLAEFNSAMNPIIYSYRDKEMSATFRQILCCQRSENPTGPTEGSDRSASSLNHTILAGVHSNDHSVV

[3] = molecular target: T3, Edg-4 (Homo sapiens, UniProt Q9HBW0); experiment: LPA-stimulated calcium increases in HTC cells expressing Edg-4; assay type: cell-based; conditions: concentrations as high as 10 μM
T3 construct: expressed in transfected cells; host or cells: HTC (rat hepatoma) cells
T3 sequence (Q9HBW0 whole entry, species assumed): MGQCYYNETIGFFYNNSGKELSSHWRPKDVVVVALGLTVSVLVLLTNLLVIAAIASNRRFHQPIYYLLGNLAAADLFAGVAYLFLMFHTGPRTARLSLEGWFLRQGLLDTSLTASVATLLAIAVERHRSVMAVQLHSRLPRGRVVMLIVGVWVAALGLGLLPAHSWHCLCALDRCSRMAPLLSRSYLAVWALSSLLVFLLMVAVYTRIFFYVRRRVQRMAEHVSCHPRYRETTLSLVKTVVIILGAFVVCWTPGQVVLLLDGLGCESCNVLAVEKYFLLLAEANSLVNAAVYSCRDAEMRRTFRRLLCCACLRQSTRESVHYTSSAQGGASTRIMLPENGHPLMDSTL

[4] = molecular target: T4, Edg-7 (Homo sapiens, UniProt Q9UBY5); experiment: LPA-stimulated calcium increases in HTC cells expressing Edg-7; assay type: cell-based; conditions: concentrations as high as 10 μM
T4 construct: expressed in transfected cells; host or cells: HTC (rat hepatoma) cells
T4 sequence (Q9UBY5 1-353): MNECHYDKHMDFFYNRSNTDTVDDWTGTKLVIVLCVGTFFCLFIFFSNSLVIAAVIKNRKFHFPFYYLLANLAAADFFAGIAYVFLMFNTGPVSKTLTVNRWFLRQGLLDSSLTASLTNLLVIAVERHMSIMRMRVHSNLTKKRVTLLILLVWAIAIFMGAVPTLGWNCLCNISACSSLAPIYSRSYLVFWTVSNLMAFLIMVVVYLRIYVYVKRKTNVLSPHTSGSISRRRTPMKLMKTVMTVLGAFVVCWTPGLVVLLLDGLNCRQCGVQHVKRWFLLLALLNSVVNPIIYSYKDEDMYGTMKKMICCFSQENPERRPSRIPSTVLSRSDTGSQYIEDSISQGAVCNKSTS

[5] = molecular target: T5, Edg-1 (Homo sapiens, UniProt P21453); experiment: S1P-stimulated calcium increases in HTC cells expressing Edg-1; assay type: cell-based; conditions: concentrations as high as 10 μM
T5 construct: expressed in transfected cells; host or cells: HTC (rat hepatoma) cells
T5 sequence (P21453 whole entry): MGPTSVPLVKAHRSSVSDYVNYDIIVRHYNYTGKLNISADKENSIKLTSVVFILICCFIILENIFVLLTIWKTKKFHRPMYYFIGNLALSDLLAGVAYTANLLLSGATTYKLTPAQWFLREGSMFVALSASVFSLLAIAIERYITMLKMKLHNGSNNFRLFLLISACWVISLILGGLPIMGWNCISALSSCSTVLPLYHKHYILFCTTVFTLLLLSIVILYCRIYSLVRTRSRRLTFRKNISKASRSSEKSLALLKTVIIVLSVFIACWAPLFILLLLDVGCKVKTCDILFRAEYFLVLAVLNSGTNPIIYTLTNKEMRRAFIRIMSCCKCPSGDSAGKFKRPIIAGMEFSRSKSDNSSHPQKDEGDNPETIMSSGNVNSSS

[6] = molecular target: T6, Edg-5 (Homo sapiens, UniProt O95136); experiment: S1P-stimulated calcium increases in HTC cells expressing Edg-5; assay type: cell-based; conditions: concentrations as high as 10 μM
T6 construct: expressed in transfected cells; host or cells: HTC (rat hepatoma) cells
T6 sequence (O95136 whole entry, species assumed): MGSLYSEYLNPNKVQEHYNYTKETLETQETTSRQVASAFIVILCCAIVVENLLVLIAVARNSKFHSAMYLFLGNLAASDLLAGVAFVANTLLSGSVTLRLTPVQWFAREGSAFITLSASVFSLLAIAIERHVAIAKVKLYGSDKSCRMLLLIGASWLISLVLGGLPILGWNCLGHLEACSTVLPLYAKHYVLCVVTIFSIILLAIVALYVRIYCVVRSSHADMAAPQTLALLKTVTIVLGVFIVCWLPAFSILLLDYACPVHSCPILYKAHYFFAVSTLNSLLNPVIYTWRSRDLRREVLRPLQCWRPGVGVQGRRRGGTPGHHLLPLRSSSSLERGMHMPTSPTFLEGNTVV

[7] = molecular target: T7, Edg-6 (Homo sapiens, UniProt O95977); experiment: S1P-stimulated calcium increases in HTC cells expressing Edg-6; assay type: cell-based; conditions: concentrations as high as 10 μM
T7 construct: expressed in transfected cells; host or cells: HTC (rat hepatoma) cells
T7 sequence (O95977 1-384): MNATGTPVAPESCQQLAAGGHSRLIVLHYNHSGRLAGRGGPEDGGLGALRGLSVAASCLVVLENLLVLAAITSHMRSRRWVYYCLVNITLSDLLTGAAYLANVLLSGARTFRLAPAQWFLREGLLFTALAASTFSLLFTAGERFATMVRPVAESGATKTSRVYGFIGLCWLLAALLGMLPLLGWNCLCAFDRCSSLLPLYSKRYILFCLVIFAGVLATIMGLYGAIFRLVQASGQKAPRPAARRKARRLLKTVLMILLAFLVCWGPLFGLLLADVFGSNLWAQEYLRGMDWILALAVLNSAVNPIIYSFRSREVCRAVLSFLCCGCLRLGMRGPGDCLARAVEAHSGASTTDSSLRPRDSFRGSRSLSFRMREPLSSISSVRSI

[8] = molecular target: T8, Edg-8 (Homo sapiens, UniProt Q9H228); experiment: S1P-stimulated calcium increases in HTC cells expressing Edg-8; assay type: cell-based; conditions: concentrations as high as 10 μM
T8 construct: expressed in transfected cells; host or cells: HTC (rat hepatoma) cells
T8 sequence (Q9H228 whole entry, species assumed): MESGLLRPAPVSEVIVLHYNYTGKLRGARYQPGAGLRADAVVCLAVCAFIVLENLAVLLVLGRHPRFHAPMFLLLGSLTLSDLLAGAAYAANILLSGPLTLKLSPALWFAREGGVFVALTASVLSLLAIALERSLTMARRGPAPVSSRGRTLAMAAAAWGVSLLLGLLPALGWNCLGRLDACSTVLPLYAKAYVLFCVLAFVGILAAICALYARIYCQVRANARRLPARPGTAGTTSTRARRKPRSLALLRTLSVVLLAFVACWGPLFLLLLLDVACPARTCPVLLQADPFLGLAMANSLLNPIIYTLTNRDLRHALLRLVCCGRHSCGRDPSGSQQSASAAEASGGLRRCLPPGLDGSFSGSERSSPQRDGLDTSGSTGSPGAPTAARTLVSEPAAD

[9] = system: Adrenergic α1, non-selective; experiment: Radioligand binding assay, Adrenergic α1, non-selective; conditions: Wistar Rat brain; 0.25 nM 3H Prazosin; significance criteria ≦50% of max stimulation or inhibition
Description: (§1) In order to test the selectivity of compounds, various radioligand binding assays were performed using numerous non-Edg receptor targets as listed below.
(§2) A radioligand binding assay was performed using adrenergic α1 according to the method of Greengrass and Bremner 1979, Eur. J. Pharmacol. 55:323-326. A radioligand binding assay was performed using adrenergic α2 according to the method of Boyajian and Leslie, 1987, J. Pharmacol. Exp. Ther. 241:1092-1098. A radioligand binding assay was performed using adrenergic β according to the method of Feve et al., 1994, Proc. Natl. Acad. Sci. USA 91:5677-5681. A radioligand binding assay was performed using angiotensin AT2 according to the method of Whitebread et al., 1991, Biochem. Biophys. Res. Comm. 181:1365-1371. A radioligand binding assay was performed using calcium channel Type L, dihydropyridine according to the method of Ehlert et al., 1982, Life Sci. 30:2191-2202. A radioligand binding assay was performed using dopamine D2L according to the method of Bunzo et al., 1988, Nature 336:783-787. A radioligand binding assay was performed using endothelin ETA according to the method of Mihara et al., 1994, J. Pharmacol. Exp Ther. 268:1122-1127. A radioligand binding assay was performed using histamine H1 Central according to the method of Hill et al., 1978, J. Neurochem. 31:997-1004. […]
(§3) Quantitation Method: Radioligand Binding […]

[10] = system: Adrenergic α2; experiment: Radioligand binding assay, Adrenergic α2; conditions: Wistar rat cerebral cortex; 0.7 nM 3H Rauwolscine; significance criteria ≦50% of max stimulation or inhibition
Description: as §1, §2, §3

[11] = system: Adrenergic β; experiment: Radioligand binding assay, Adrenergic β; conditions: Wistar rat brain; 0.25 nM 3H Dihydroaplenolol; significance criteria ≦50% of max stimulation or inhibition
Description: as §1, §2, §3

[12] = molecular target: T9, Angiotensin AT2 (Homo sapiens, UniProt P50052); experiment: Radioligand binding assay, Angiotensin AT2; conditions: Human recombinant Hela cells; 0.025 nM 125I CGP-42112A; significance criteria ≦50% of max stimulation or inhibition
T9 construct: expressed in transfected cells; host or cells: Hela cells
T9 sequence (P50052 1-363): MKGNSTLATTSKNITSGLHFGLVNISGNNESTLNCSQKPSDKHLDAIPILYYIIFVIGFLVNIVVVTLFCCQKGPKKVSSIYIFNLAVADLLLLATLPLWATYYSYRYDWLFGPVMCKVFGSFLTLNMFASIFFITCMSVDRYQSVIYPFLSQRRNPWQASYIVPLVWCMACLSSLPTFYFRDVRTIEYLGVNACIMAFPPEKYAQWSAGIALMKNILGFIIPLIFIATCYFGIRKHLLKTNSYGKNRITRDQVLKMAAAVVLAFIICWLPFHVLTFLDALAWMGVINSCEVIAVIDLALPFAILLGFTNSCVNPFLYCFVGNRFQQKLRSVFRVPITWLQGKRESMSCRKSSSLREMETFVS
Description: as §1, §2, §3

[13] = system: Calcium Channel Type L, Dihydropyridine; experiment: Radioligand binding assay, Calcium Channel Type L, Dihydropyridine; conditions: Wistar Rat cerebral cortex; 0.1 nM 3H Nitrendipine; significance criteria ≦50% of max stimulation or inhibition
Description: as §1, §2, §3

[14] = molecular target: T10, Dopamine D2L (Homo sapiens, UniProt P14416); experiment: Radioligand binding assay, Dopamine D2L; conditions: Human recombinant CHO cells; 0.16 nM 3H Spiperone; significance criteria ≦50% of max stimulation or inhibition
T10 construct: expressed in transfected cells; host or cells: CHO cells
T10 sequence (P14416 whole entry): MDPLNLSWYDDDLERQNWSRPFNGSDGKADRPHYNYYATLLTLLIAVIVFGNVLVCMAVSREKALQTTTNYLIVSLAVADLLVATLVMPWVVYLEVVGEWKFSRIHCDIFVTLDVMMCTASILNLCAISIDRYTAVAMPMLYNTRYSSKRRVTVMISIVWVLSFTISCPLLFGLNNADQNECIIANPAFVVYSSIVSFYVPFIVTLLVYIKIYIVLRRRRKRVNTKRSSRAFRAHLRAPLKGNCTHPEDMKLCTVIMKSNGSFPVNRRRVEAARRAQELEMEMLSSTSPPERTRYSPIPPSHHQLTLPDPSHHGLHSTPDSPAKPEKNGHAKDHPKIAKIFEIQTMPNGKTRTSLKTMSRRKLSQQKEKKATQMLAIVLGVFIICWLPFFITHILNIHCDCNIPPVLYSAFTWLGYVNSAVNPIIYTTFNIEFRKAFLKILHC
Description: as §1, §2, §3

[15] = molecular target: T11, Endothelin ETA (Homo sapiens, UniProt P25101); experiment: Radioligand binding assay, Endothelin ETA; conditions: Human recombinant CHO cells; 0.03 nM 125 Endothelin; significance criteria ≦50% of max stimulation or inhibition
T11 construct: expressed in transfected cells; host or cells: CHO cells
T11 sequence (P25101 21-427): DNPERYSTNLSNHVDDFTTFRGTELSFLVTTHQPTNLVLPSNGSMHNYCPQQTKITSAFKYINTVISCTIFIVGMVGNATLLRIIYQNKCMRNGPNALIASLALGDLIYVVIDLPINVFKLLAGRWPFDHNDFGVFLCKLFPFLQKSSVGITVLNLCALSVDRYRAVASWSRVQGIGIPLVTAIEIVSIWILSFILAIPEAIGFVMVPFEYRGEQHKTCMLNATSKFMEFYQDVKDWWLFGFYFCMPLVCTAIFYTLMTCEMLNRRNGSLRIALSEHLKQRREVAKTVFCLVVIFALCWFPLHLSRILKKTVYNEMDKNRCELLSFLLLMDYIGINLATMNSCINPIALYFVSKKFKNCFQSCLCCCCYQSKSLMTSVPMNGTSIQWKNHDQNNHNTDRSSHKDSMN
Description: as §1, §2, §3

[16] = molecular target: T12, Histamine H1, Central (Cavia porcellus, UniProt P31389); experiment: Radioligand binding assay, Histamine H1, Central; conditions: Guinea pig cerebellum; 1.75 nM 3H Pyrilamine; significance criteria ≦50% of max stimulation or inhibition
T12 construct: from tissue; host or cells: Guinea pig cerebellum
T12 sequence (P31389 whole entry): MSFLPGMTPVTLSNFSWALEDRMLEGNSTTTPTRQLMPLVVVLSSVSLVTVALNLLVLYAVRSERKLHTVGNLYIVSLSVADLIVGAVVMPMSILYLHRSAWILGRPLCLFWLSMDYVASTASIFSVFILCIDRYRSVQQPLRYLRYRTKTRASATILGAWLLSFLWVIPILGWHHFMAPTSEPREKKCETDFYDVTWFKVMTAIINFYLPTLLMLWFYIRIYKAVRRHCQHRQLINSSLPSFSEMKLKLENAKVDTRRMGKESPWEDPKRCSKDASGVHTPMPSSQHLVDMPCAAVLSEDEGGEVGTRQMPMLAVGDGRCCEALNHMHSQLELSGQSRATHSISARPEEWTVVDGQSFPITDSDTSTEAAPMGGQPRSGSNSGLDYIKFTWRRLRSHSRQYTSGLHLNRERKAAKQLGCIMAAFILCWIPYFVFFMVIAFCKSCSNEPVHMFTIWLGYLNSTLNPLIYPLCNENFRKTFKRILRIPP
Description: as §1, §2, §3

[17] = system: Muscarinic non-selective, Central; assay type: binding; conditions: Wistar rat cerebral cortex; 0.29 nM 3H Quinuclidinyl benzilate; significance criteria ≦50% of max stimulation or inhibition
[18] = system: Serotonin 5-HT1, non-selective; experiment: Radioligand binding assay, Serotonin 5-HT1, non-selective; conditions: Wistar rat cerebral cortex; 2 nM 3H Serotonin (5-HT) Trifluoroacetate; significance criteria ≦50% of max stimulation or inhibition
Description: as §1, §2, §3

Cc1c(-c2ccccc2)nc2ccccc2c1C(=O)NCc1ccc(F)cc1 [Compound 101]
inhibition of Edg-3 stimulated SP1 responses [1]: demonstrate inhibition; also recorded: specifically inhibit
inhibition of LPA-stimulated calcium increases [2]: did not inhibit
inhibition of LPA-stimulated calcium increases [3]: did not inhibit
inhibition of LPA-stimulated calcium increases [4]: did not inhibit
inhibition of S1P-stimulated calcium increases [5]: did not inhibit
inhibition of S1P-stimulated calcium increases [6]: did not inhibit
inhibition of S1P-stimulated calcium increases [7]: did not inhibit
inhibition of S1P-stimulated calcium increases [8]: did not inhibit
activity in radioligand binding assay [9]: no significant activity
activity in radioligand binding assay [10]: no significant activity
activity in radioligand binding assay [11]: no significant activity
activity in radioligand binding assay [12]: no significant activity
activity in radioligand binding assay [13]: no significant activity
activity in radioligand binding assay [14]: no significant activity
activity in radioligand binding assay [15]: no significant activity
activity in radioligand binding assay [16]: no significant activity
activity in radioligand binding assay [17]: no significant activity
activity in radioligand binding assay [18]: no significant activity
